Data: patent US20100311714A1, “1H-IMIDAZO[4,5-c]QUINOLINONE COMPOUNDS” (priority 2009, published 2010)
Values after ≈ are worked out from the molar mass of the structure shown. Where two headings read alike, the source gives them in different places.

Columns and labels:
[1] = High-throughput equilibrium solubility at pH 6.8; type: physicochemical; details: pH 6.8, aqueous buffer, thermodynamic from solid; read-out: HT-Eq Sol/pH 6.8
Method in brief: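 Following the procedure of Zhou et al. (2007), compound solubility was determined at pH 6.8.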

[2] = biological target: T1, PI3K delta (Homo sapiens, UniProt O00329); experiment: PI3K delta kinase assay (Kinase-Glo luminescence); type: biochemical
T1 construct: for the full-length p110-d subunit are generated and fused by overlapping PCR; His tag (C); made in house; host or cells: baculovirus BV1060; Tn5 (Trichoplusia ni) or TiniPro insect cells
Method in brief: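 IC50s derive from 8-point inhibition curves fitted to a 4-parameter logistic model. Reaction: 10 nM purified p110δ/p85 iSH2 fusion, 1 μM ATP, 10 μg/mL PI substrate, pH 7.5 Tris buffer with MgCl2, NaCl, CHAPS and DTT, run 60 min at room temperature; remaining ATP read by Kinase-Glo luminescence.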

T1 sequence (O00329 with tags, fused parts or gaps limits assumed): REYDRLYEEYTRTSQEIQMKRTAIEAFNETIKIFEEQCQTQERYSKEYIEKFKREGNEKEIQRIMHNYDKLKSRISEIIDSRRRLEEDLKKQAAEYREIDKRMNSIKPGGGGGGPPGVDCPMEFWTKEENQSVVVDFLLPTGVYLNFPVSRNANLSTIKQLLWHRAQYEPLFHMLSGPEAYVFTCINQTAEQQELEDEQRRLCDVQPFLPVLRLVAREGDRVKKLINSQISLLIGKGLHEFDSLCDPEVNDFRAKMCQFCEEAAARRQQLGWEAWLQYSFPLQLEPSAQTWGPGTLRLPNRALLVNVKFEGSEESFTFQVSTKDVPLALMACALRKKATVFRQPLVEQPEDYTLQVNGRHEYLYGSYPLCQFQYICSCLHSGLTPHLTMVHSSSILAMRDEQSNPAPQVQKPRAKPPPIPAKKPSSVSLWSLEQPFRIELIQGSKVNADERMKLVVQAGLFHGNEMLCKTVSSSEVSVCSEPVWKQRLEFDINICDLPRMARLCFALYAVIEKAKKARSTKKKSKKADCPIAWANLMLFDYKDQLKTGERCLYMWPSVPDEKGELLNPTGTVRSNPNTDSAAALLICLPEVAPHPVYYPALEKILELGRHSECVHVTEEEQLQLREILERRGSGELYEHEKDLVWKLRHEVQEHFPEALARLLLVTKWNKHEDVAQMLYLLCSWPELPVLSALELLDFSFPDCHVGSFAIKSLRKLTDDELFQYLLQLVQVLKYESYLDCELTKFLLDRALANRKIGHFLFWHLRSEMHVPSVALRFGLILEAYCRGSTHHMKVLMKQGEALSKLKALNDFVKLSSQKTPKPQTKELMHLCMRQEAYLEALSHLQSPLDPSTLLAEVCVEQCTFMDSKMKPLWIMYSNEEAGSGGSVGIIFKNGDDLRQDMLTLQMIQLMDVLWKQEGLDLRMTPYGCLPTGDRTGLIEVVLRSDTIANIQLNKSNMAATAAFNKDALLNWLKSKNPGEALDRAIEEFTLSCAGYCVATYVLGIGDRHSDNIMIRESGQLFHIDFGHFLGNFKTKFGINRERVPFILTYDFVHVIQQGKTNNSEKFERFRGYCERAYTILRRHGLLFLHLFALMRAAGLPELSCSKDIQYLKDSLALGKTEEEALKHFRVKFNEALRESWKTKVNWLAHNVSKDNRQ

SMILES	solubility thermodynamic [1]	IC50 ([2]; read-out: EPK_PI3Kdelta/IC50)	IC50 ([2]; read-out: PI3Kdelta/IC50)
CCNc1cc(-c2ccc3ncc4c(c3c2)n(-c2ccc(OC)nc2C)c(=O)n4C)cnc1C [Example 11.7, 8-(5-Ethylamino-6-methyl-pyridin-3-yl)-1-(6-methoxy-2-methyl-pyridin-3-yl)-3-methyl-1,3-dihydro-imidazo[4,5-c]quinolin-2-one]	3 µg/mL (≈ 6.6 µM)	3 nM	
COc1ccc(-n2c(=O)n(C)c3cnc4ccc(-c5ccc6nccn6c5)cc4c32)c(OC)n1 [Example 8.10, 1-(2,6-Dimethoxy-pyridin-3-yl)-8-imidazo[1,2-a]pyridin-6-yl-3-methyl-1,3-dihydro-imidazo[4,5-c]quinolin-2-one]	47 µg/mL (≈ 104 µM)	192 nM	
CCOc1ccc(-c2ccc3ncc4c(c3c2)n(-c2ccc(OCCOC)nc2C)c(=O)n4C)cn1 [Example 13.1, 8-(6-Ethoxy-pyridin-3-yl)-1-[6-(2-methoxy-ethoxy)-2-methyl-pyridin-3-yl]-3-methyl-1,3-dihydro-imidazo[4,5-c]quinolin-2-one]	3 µg/mL (≈ 6.18 µM)	742 nM	
CNc1ncc(-c2ccc3ncc4c(c3c2)n(-c2ccc(F)nc2C)c(=O)n4C)cc1C(F)(F)F [Example 7.13, 1-(6-Fluoro-2-methyl-pyridin-3-yl)-3-methyl-8-(6-methylamino-5-trifluoromethyl-pyridin-3-yl)-1,3-dihydro-imidazo[4,5-c]quinolin-2-one]	20 µg/mL (≈ 41.5 µM)	3 nM	
CCOCc1cc(-c2ccc3ncc4c(c3c2)n(-c2ccc(F)nc2C)c(=O)n4C)cnc1N [Example 7.15, 8-(6-Amino-5-ethoxymethyl-pyridin-3-yl)-1-(6-fluoro-2-methyl-pyridin-3-yl)-3-methyl-1,3-dihydro-imidazo[4,5-c]quinolin-2-one]	67.5 µg/mL (≈ 147 µM)	37 nM	
COCCN(C)c1ccc(-n2c(=O)n(C)c3cnc4ccc(-c5cncc(N)c5)cc4c32)c(C)n1 [Example 15.8, 8-(5-Amino-pyridin-3-yl)-1-{6-[(2-methoxy-ethyl)-methyl-amino]-2-methyl-pyridin-3-yl}-3-methyl-1,3-dihydro-imidazo[4,5-c]quinolin-2-one]	56 µg/mL (≈ 119 µM)	45 nM	
CNc1ncc(-c2ccc3ncc4c(c3c2)n(-c2cccnc2C)c(=O)n4C)cn1 [Example 2.2, 3-Methyl-8-(2-methylamino-pyrimidin-5-yl)-1-(2-methyl-pyridin-3-yl)-1,3-dihydro-imidazo[4,5-c]quinolin-2-one]	14 µg/mL (≈ 35.2 µM)		22 nM
CNC(=O)c1cc(-c2ccc3ncc4c(c3c2)n(-c2ccc(F)nc2C)c(=O)n4C)cnc1N [Example 7.14, 2-Amino-5-[1-(6-fluoro-2-methyl-pyridin-3-yl)-3-methyl-2-oxo-2,3-dihydro-1H-imidazo[4,5-c]quinolin-8-yl]-N-methyl-nicotinamide]	3 µg/mL (≈ 6.56 µM)	5 nM	
COc1nc(N2CCNCC2)ccc1-n1c(=O)n(C)c2cnc3ccc(-c4cnc(N(C)C)nc4)cc3c21 [Example 9.4, 8-(2-Dimethylamino-pyrimidin-5-yl)-1-(2-methoxy-6-piperazin-1-yl-pyridin-3-yl)-3-methyl-1,3-dihydro-imidazo[4,5-c]quinolin-2-one]	> 512 µg/mL	17 nM	
COc1ncccc1-n1c(=O)n(C)c2cnc3ccc(-c4ccc(F)nc4)cc3c21 [Example 1.8, 8-(6-Fluoro-pyridin-3-yl)-1-(2-methoxy-pyridin-3-yl)-3-methyl-1,3-dihydro-imidazo[4,5-c]quinolin-2-one]	4 µg/mL (≈ 9.97 µM)		364 nM
CNc1ncc(-c2ccc3ncc4c(c3c2)n(-c2ccc(F)nc2C)c(=O)n4C)cc1F [Example 7.12, 8-(5-Fluoro-6-methylamino-pyridin-3-yl)-1-(6-fluoro-2-methyl-pyridin-3-yl)-3-methyl-1,3-dihydro-imidazo[4,5-c]quinolin-2-one]	3 µg/mL (≈ 6.94 µM)	12 nM	
CNc1ncc(-c2ccc3ncc4c(c3c2)n(-c2ccc(N(C)CCOC)nc2C)c(=O)n4C)cn1 [Example 15.2, 1-{6-[(2-Methoxy-ethyl)-methyl-amino]-2-methyl-pyridin-3-yl}-3-methyl-8-(2-methylamino-pyrimidin-5-yl)-1,3-dihydro-imidazo[4,5-c]quinolin-2-one]	81 µg/mL (≈ 167 µM)	32 nM	
Cc1ccc(-n2c(=O)n(C)c3cnc4ccc(-c5cncc(NC(C)C)c5)cc4c32)c(C)n1 [Example 14.8, 1-(2,6-Dimethyl-pyridin-3-yl)-8-(5-isopropylamino-pyridin-3-yl)-3-methyl-1,3-dihydro-imidazo[4,5-c]quinolin-2-one]	12 µg/mL (≈ 27.4 µM)	46 nM	
CCNc1cc(-c2ccc3ncc4c(c3c2)n(-c2ccc(OCCOC)nc2C)c(=O)n4C)cnc1C [Example 13.4, 8-(5-Ethylamino-6-methyl-pyridin-3-yl)-1-[6-(2-methoxy-ethoxy)-2-methyl-pyridin-3-yl]-3-methyl-1,3-dihydro-imidazo[4,5-c]quinolin-2-one]	7 µg/mL (≈ 14 µM)	15 nM	
CCOc1ccc(-c2ccc3ncc4c(c3c2)n(-c2ccc(C)nc2C)c(=O)n4C)cn1 [Example 14.2, 1-(2,6-Dimethyl-pyridin-3-yl)-8-(6-ethoxy-pyridin-3-yl)-3-methyl-1,3-dihydro-imidazo[4,5-c]quinolin-2-one]	4 µg/mL (≈ 9.4 µM)	30 nM	
COCCOc1ccc(-n2c(=O)n(C)c3cnc4ccc(-c5cnc(N)c(C(F)(F)F)c5)cc4c32)c(C)n1 [Example 13.2, 8-(6-Amino-5-trifluoromethyl-pyridin-3-yl)-1-[6-(2-methoxy-ethoxy)-2-methyl-pyridin-3-yl]-3-methyl-1,3-dihydro-imidazo[4,5-c]quinolin-2-one]	27 µg/mL (≈ 51.5 µM)	14 nM	
CNc1ncc(-c2ccc3ncc4c(c3c2)n(-c2ccc(OCCOC)nc2C)c(=O)n4C)cn1 [Example 13.5, 1-[6-(2-Methoxy-ethoxy)-2-methyl-pyridin-3-yl]-3-methyl-8-(2-methylamino-pyrimidin-5-yl)-1,3-dihydro-imidazo[4,5-c]quinolin-2-one]	15 µg/mL (≈ 31.8 µM)	60 nM	
COCCN(C)c1ccc(-n2c(=O)n(C)c3cnc4ccc(-c5cnc(N(C)C)nc5)cc4c32)c(C)n1 [Example 15.5, 8-(2-Dimethylamino-pyrimidin-5-yl)-1-{6-[(2-methoxy-ethyl)-methyl-amino]-2-methyl-pyridin-3-yl}-3-methyl-1,3-dihydro-imidazo[4,5-c]quinolin-2-one]		44 nM	
COCCN(C)c1ccc(-n2c(=O)n(C)c3cnc4ccc(-c5cnc(N)c(C(F)(F)F)c5)cc4c32)c(C)n1 [Example 15.1, 8-(6-Amino-5-trifluoromethyl-pyridin-3-yl)-1-{6-[(2-methoxy-ethyl)-methyl-amino]-2-methyl-pyridin-3-yl}-3-methyl-1,3-dihydro-imidazo[4,5-c]quinolin-2-one]		7 nM	
CCOc1cc(-c2ccc3ncc4c(c3c2)n(-c2cccnc2C)c(=O)n4C)cnc1C [Example 2.22, 8-(5-Ethoxy-6-methyl-pyridin-3-yl)-3-methyl-1-(2-methyl-pyridin-3-yl)-1,3-dihydro-imidazo[4,5-c]quinolin-2-one]		61 nM	

Second part, the compound after the results:

solubility thermodynamic [1]	IC50 ([2]; read-out: EPK_PI3Kdelta/IC50)	IC50 ([2]; read-out: PI3Kdelta/IC50)	SMILES
34 µg/mL (≈ 75 µM)	28 nM		CNc1cc(-c2ccc3ncc4c(c3c2)n(-c2ccc(N(C)C)nc2C)c(=O)n4C)cnc1C [Example 19.2, 1-(6-Dimethylamino-2-methyl-pyridin-3-yl)-3-methyl-8-(6-methyl-5-methylamino-pyridin-3-yl)-1,3-dihydro-imidazo[4,5-c]quinolin-2-one]
2 µg/mL (≈ 4.56 µM)	39 nM		Cc1cc(F)ncc1-n1c(=O)n(C)c2cnc3ccc(-c4cnc5c(ccn5C)c4)cc3c21 [Example 16.5, 1-(6-Fluoro-4-methyl-pyridin-3-yl)-3-methyl-8-(1-methyl-1H-pyrrolo[2,3-b]pyridin-5-yl)-1,3-dihydro-imidazo[4,5-c]quinolin-2-one]
28 µg/mL (≈ 59.6 µM)	34 nM		COCC(=O)Nc1ccc(-n2c(=O)n(C)c3cnc4ccc(-c5cncc(N)c5)cc4c32)c(C)n1 [Example 20.1, N-{5-[8-(5-Amino-pyridin-3-yl)-3-methyl-2-oxo-2,3-dihydro-imidazo[4,5-c]quinolin-1-yl]-6-methyl-pyridin-2-yl}-2-methoxy-acetamide]
110 µg/mL (≈ 234 µM)	24 nM		COc1cc(-c2ccc3ncc4c(c3c2)n(-c2ccc(N(C)C)nc2C)c(=O)n4C)cnc1CO [Example 19.4, 1-(6-Dimethylamino-2-methyl-pyridin-3-yl)-8-(6-hydroxymethyl-5-methoxy-pyridin-3-yl)-3-methyl-1,3-dihydro-imidazo[4,5-c]quinolin-2-one]
55 µg/mL (≈ 133 µM)	207 nM		CNc1ccc(-c2ccc3ncc4c(c3c2)n(-c2cnc(F)cc2C)c(=O)n4C)cn1 [Example 16.4, 1-(6-Fluoro-4-methyl-pyridin-3-yl)-3-methyl-8-(6-methylamino-pyridin-3-yl)-1,3-dihydro-imidazo[4,5-c]quinolin-2-one]
	247 nM		CCOc1ccc(-c2ccc3ncc4c(c3c2)n(-c2ccc(NC(=O)COC)nc2C)c(=O)n4C)cn1 [Example 20.2, N-{5-[8-(6-Ethoxy-pyridin-3-yl)-3-methyl-2-oxo-2,3-dihydro-imidazo[4,5-c]quinolin-1-yl]-6-methyl-pyridin-2-yl}-2-methoxy-acetamide]
	10 nM		CNc1cc(-c2ccc3ncc4c(c3c2)n(-c2ccc(C(F)(F)F)nc2C)c(=O)n4C)cnc1CO [Example 33.2, 8-(6-Hydroxymethyl-5-methylamino-pyridin-3-yl)-3-methyl-1-(2-methyl-6-trifluoromethyl-pyridin-3-yl)-1,3-dihydro-imidazo[4,5-c]quinolin-2-one]
